Here are results for 20 molecules from patent publication US11286268B1, “EIF4E-inhibiting compounds and methods” (EFFECTOR THERAPEUTICS, INC., priority 2019, dated 2022).

In this assay the target is recombinant eIF4E (Homo sapiens (Human), UniProt P06730). Put plainly: Fluorescence polarization competition assay for eIF4E binding potency. The procedure, abridged:
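Competition of test compound against 20 nM EDA-m^7GDP-ATTO-550 for 75 nM recombinant eIF4E, pre-incubated 5 min, in 20 mM Tris pH 7.5, 100 mM NaCl, 1 mM DTT, 0.02% Tween-20, 1% DMSO. Equilibrated 30 min at room temperature, dark; fluorescence polarization read. IC50 from 8-point, 3-fold dilution series.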
Background: Polarisation of emitted light reports the rotation of a fluorescent probe.

Where [1] appears, read: fluorescence polarization competition, 75 nM recombinant eIF4E, 20 nM EDA-m7GDP-ATTO-550, IC50 class, read-out: elF4E FP.
[2] abbreviates: inhibition of eIF4E/EDA-m7GDP-ATTO-550 binding by 50%, Table 4B calculated values, read-out: IC50.
Where [3] appears, read: inhibition of eIF4E/EDA-m7GDP-ATTO-550 binding, calculated IC50 values, Table 4B, read-out: IC50.

Where two headings read alike, the source gives them in different places. Some results are limits rather than exact numbers.

Sequence of recombinant eIF4E (P06730 whole entry): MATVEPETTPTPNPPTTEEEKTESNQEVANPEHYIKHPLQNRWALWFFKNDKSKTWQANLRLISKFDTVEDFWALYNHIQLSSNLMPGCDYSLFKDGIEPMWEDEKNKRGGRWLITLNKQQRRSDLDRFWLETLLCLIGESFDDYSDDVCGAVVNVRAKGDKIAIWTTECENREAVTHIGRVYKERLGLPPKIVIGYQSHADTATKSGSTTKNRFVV

As to `Cc1nc2cc(C(F)(F)F)cc(C#N)c2c(=O)n1CCOc1cnc(Cl)nc1-c1ccnc2c(C(=O)O)csc12` [compound 454], the IC50 was 0.05 to 1 µM under setting [1] and 0.0511 µM under setting [2].

On to `COc1sc2c(-c3cc(Cl)ccc3OCCn3c(C)nc4cnc(C5CC5)c(C#N)c4c3=O)ccnc2c1C(=O)O` [compound 772], for which the IC50 by setting is: under setting [1], under 0.05 µM; under setting [2], 0.0141 µM.

Regarding `Cc1cc(-c2cc(Cl)ccc2OCCn2c(C)nc3cc(Cl)c(Nc4cncc(F)c4)c(C#N)c3c2=O)c2scc(C(=O)O)c2n1` [compound 962], the IC50 reads like this: under setting [1], under 0.05 µM; under setting [2], 0.00315 µM.

As for `Cc1nc2cc(CN(C)C)c(OC(F)(F)F)c(C#N)c2c(=O)n1CCOc1ccc(Cl)cc1-c1ccnc2c(C(=O)O)csc12` [compound 552], the IC50 was 0.05 to 1 µM under setting [1] and 0.0509 µM under setting [2].

For `CCc1ncc2nc(C)n(CCOc3ccc(Cl)cc3-c3cc(C)nc4c(C(=O)O)csc34)c(=O)c2c1C#N` [compound 923], the IC50 under setting [1] was under 0.05 µM and the IC50 under setting [2] was 0.00371 µM.

Take `O=C(O)c1cc2ccc1CCCCCc1nc3cc(C(F)(F)F)cc(Br)c3c(=O)n1CCOc1ccc(Cl)cc1-2` [compound 2013]: under setting [3], the IC50 is over 10 µM.

As for `Cc1cc(-c2cc(Cl)ccc2OCCn2c(C)nc3c(-c4ccccc4)nc(C4CC4)c(C#N)c3c2=O)c2scc(C(=O)O)c2n1` [compound 910], the IC50 is under 0.05 µM under setting [1] and 0.0175 µM under setting [2].

As to `Cc1cc(-c2cc(Cl)ccc2OCCn2c(C)nc3cc(C(F)(F)F)c(Cc4ccccn4)nc3c2=O)c2scc(C(=O)O)c2n1` [compound 390], the IC50 under setting [1] is under 0.05 µM and the IC50 under setting [2] was 0.00175 µM.

`N#Cc1cccc2nc(C(F)F)n(CCOc3ccc(Cl)cc3-c3ccnc(C(=O)O)c3)c(=O)c12` [compound 166]: the IC50 is under 0.05 µM under setting [1] and 0.035 µM under setting [2].

Consider `Cc1nc2cnc(C3=CCC(F)(F)CC3)c(C#N)c2c(=O)n1CC#Cc1ccc(Cl)cc1-c1ccnc2c(C(=O)O)csc12` [compound 1482], for which the IC50 under setting [3] was 0.0166 µM.

As for `Cc1nc2cc(C(F)(F)F)c(CC3CN(CCF)C3)c(C#N)c2c(=O)n1CCOc1ccc(Cl)cc1-c1ccnc2c(C(=O)O)csc12` [compound 321], the IC50 is, setting by setting: under setting [1], under 0.05 µM; under setting [2], 0.00489 µM.

For `Cc1nc2cnc(N3CCN(CCC(F)(F)F)CC3)c(C#N)c2c(=O)n1CC#Cc1ccc(Cl)cc1-c1ccnc2c(C(=O)O)csc12` [compound 1353], the IC50 under setting [3] is 0.0172 µM.

For the molecule `N#Cc1c(C(F)F)ccc2nc(C(F)F)n(CCOc3ccc(Cl)cc3-c3ccnc4c(C(=O)O)csc34)c(=O)c12` [compound 188], the IC50 was 0.05 to 1 µM under setting [1] and 0.0632 µM under setting [2].

Take `Cc1cc(-c2cc(Cl)ccc2OCCn2c(C)nc3c(C)nc(CC4CCOCC4)c(C#N)c3c2=O)c2scc(C(=O)O)c2n1` [compound 400]: the IC50 reads like this: under setting [1], under 0.05 µM; under setting [2], 0.00468 µM.

`N#Cc1cc2c(=O)n(CCOc3ccc(Cl)cc3-c3cncc(C(=O)O)n3)cnc2cn1` [compound 85]: the IC50 was over 1 µM under setting [1] and 1.85 µM under setting [2].

With `Cc1nc2cc(C(F)(F)F)c(C#CCN)c(C#N)c2c(=O)n1CCOc1ccc(Cl)cc1-c1ccnc2c(C(=O)O)csc12` [compound 1260], under setting [3], the IC50 is 0.013 µM.

Take `Cc1nc2cnc(N(C)C3CCN([C@H]4C[C@@H](OC(F)(F)F)C4)CC3)c(C#N)c2c(=O)n1CC#Cc1ccc(Cl)cc1-c1ccnc2c(C(=O)NS(=O)(=O)c3ccncc3)csc12` [compound 1773]: the IC50 under setting [3] was 0.0475 µM.

On to `CCN(c1ncc2nc(C)n(CC#Cc3ccc(Cl)cc3-c3ccnc4c(C(=O)NS(=O)(=O)CC)csc34)c(=O)c2c1C#N)C1CCN(C2COC2)CC1` [compound 1733], for which, under setting [3], the IC50 is 0.00811 µM.

As for `Cc1nc2cc(CN(C)C)c(C(F)F)c(C#N)c2c(=O)n1CCOc1ccc(Cl)cc1-c1ccnc2c(C(=O)O)csc12` [compound 515], the IC50 is under 0.05 µM under setting [1] and 0.046 µM under setting [2].

`Cc1cc(-c2cc(Cl)ccc2OCCn2c(C)nc3c(C)nc(-c4cc(Cl)ccc4F)c(C#N)c3c2=O)c2scc(C(=O)O)c2n1` [compound 997]: the IC50 was under 0.05 µM under setting [1] and 0.0122 µM under setting [2].
